{"source": "patent US20220401385A1", "about": "“Combination Therapy Based on PD-1 Signaling Inhibitors” (Kyoto University, priority 2019, published 2022)", "key": {"CD44 high CD8+ T cells": {"test_system": "CD44 high CD8+ T cells", "assay": "Cell proliferation by 3H uptake in vitro, CD44 high cells", "assay_type": "cell-based, mice", "conditions": "SPD 0.2 μM, 24 hours", "procedure": "(§1) FIG. 4 CD8^+ T cells were isolated from the spleen of mice without tumor inoculation, and further isolated into CD44^+ (CD44 high) and CD44^− (CD44 low) cell populations. a) CD44 low cells were simulated with CD3/CD28 antibody beads and SPD (0.2 μM). After 30 minutes, 1 hour, 2 hours and 72 hours, OCR was measured with a Seahorse analyzer. b) At the same time, total ATP production and glycolytic pathway-derived or mitochondrial activity-derived ATP production were calculated at 30-minute, 1-hour and 2-hour. c) CD44 low cells (2×10^5 cells) were stimulated with CD3/CD28 antibody beads and SPD (0.2 μM). After 24 hours, cell proliferation was examined by means of 3H uptake. d) Spare respiratory capacity (SRC) was calculated from the OCR measurement after 72 hours in a), and results with and without SPD were compared. e) CD44 low cells were stimulated with CD3/CD28 antibody beads and SPD (0.2 μM). After 24 hours, frequencies between apoptotic and viable cells were calculated by PI and Annexin staining. f-j) CD44 high cells were analyzed under the same conditions and by the same methods as described in a-e) above. As regards statistical analysis, t-test was used for comparison of two groups, and ANOVA was used for comparison of three or more groups. * p<0.05, ** p<0.01, *** p<0.001, **** p<0.0001."}, "CD44 low CD8+ T cells [1]": {"test_system": "CD44 low CD8+ T cells", "assay": "PI and Annexin apoptosis assay, CD44 low cells", "assay_type": "cell-based, mice", "conditions": "in the presence of SPD 0.2 μM", "procedure": "as §1, with “[…] All flow cytometry experiments were performed on FACS Canto II (BD Biosciences)” for “As regards statistical analysis, t-test was used for comparison of two groups,”, “analyzed using FlowJo software (FLOWJO, LLC). […]” for “ANOVA was used for comparison of three or more groups. * p<0.05, ** p<0.01, *** p<0.001, **** p<0.0001.”"}, "CD44 low CD8+ T cells [2]": {"test_system": "CD44 low CD8+ T cells", "assay": "Cell proliferation by 3H uptake in vitro, CD44 low cells", "assay_type": "cell-based, mice", "conditions": "SPD 0.2 μM, 24 hours", "procedure": "as §1"}, "CD44 low CD8+ T cells [3]": {"test_system": "CD44 low CD8+ T cells", "assay": "Seahorse OCR, ATP production and SRC in vitro, CD44 low cells", "assay_type": "cell-based, mice", "conditions": "SPD 0.2 μM", "procedure": "as §1\nOxygen consumption rates were measured using an XF96 Extracellular Flux Analyzer (Seahorse Bioscience). CD8^+ T cells (4×10^5) per well were seeded in a determined XF96 plate. The four chemical modulators of mitochondrial oxidative phosphorylation, which came with an XF Cell Mito Stress Test Kit (Seahorse Bioscience), were added to the module sequentially. In brief, basal OCR measurement was performed […] sequential addition of oligomycin, FCCP, and rotenone/antimycin A. SRC and ATP production rates were calculated by the following formulas:\nSRC (pmo; 02/min)=OCRmaximal−OCRbasal\nmitoATP (pmol ATP/min)=(OCRbasal−OCRoligo)×5.5."}, "[4]": {"test_system": "CD8+ T cells in draining lymph nodes", "assay": "CD3/CD28 restimulation of draining lymph node CD8+ T cells of treated mice (3H uptake, IFN-γ ELISA)", "assay_type": "in vivo, C57BL/6 mice", "conditions": "combined use of SPD, 24 hours", "procedure": "FIG. 2-1 a) Treated mice were analyzed for draining lymph nodes and the inside of tumor. Briefly, draining lymph nodes of mice were isolated 13 days after tumor inoculation, and stained with antibodies to CD8 and Sca-1. FACS diagram and percentages of Sca-1^+ cells in CD8^+ T cells are shown. b) CD8^+ T cells in isolated draining lymph nodes were stimulated with CD3/CD28 antibody beads. After 24 hours, cell proliferation was examined by means of ^3H uptake. At the same time, IFN-γ concentration in culture supernatant was measured. c) Tumor from the same mice as described above was treated with collagenase. Then, expression rates of PD-1 and Tim3 in tumor-infiltrating CD8^+ T cells were analyzed. d) Oxygen consumption rate (OCR) and extracellular acidification rate (ECAR) of draining lymph node CD8^+ T cells were measured with a Seahorse analyzer (N=3 wells). For statistical analysis, ANOVA was used. * p<0.05, ** p<0.01, *** p<0.001, **** p<0.0001.\nIFN-γ levels in culture supernatant were measured quantitatively with mouse IFN-γ kit (BioLegend) following the instructions on the kit."}}, "note": "“Also recorded” adds a separate entry of the source.", "data": [{"compound": "NCCCCNCCCN", "note": "[SPD, spermidine]", "values": [{"measurement": "cell proliferation", "setting": "CD44 high CD8+ T cells", "value": "not found to increase"}, {"measurement": "apoptotic cells", "setting": "CD44 low CD8+ T cells [1]", "value": "decreased"}, {"measurement": "viable cells", "setting": "CD44 low CD8+ T cells [1]", "value": "increased; also recorded: significantly high"}, {"measurement": "cell proliferation", "setting": "CD44 low CD8+ T cells [2]", "value": "increased"}, {"measurement": "mitochondrial oxygen consumption (OCR)", "setting": "CD44 low CD8+ T cells [3]; 30 minutes, 1 hour, 2 hours and 72 hours after stimulation", "value": "increased"}, {"measurement": "ATP production via glycolytic pathway (glyco ATP)", "setting": "CD44 low CD8+ T cells [3]; 1 hour after stimulation", "value": "significantly high"}, {"measurement": "ATP production via intramitochondrial pathway (mito ATP)", "setting": "CD44 low CD8+ T cells [3]; 1 hour after stimulation", "value": "significantly high"}, {"measurement": "spare respiratory capacity (SRC)", "setting": "CD44 low CD8+ T cells [3]; 72 hours", "value": "enhanced; also recorded: significantly high"}, {"measurement": "cell proliferation of isolated CD8+ T cells as stimulated with CD3", "setting": "[4]; 3H uptake", "value": "enhanced"}, {"measurement": "IFN-γ production of isolated CD8+ T cells as stimulated with CD3", "setting": "[4]; culture supernatant", "value": "enhanced"}]}]}
